Measured values published in a compilation of properties of binary mixtures (doi:10.1016/j.molliq.2020.112507).

Assay: xn = mol fraction of the nth substance listed
Details: 100 kPa

CCCC#N + CCCC[n+]1ccn(C)c1.COS(=O)(=O)[O-]
speed of sound [m/s]
Details | x2 = 0 | x2 = 0.1117 | x2 = 0.2128 | x2 = 0.3714 | x2 = 0.4263 | x2 = 0.5115 | x2 = 0.6345 | x2 = 0.7161 | x2 = 0.8065 | x2 = 0.9072
298.15 K | 1279.9 | – | 1395.9 | 1468.7 | 1490.6 | 1521.4 | 1559.7 | – | 1605.3 | 1630.9
303.15 K | 1260.6 | 1323.5 | 1378.9 | 1452.9 | 1475.5 | – | 1545.8 | 1568.8 | – | 1618.2
308.15 K | 1241 | 1305.2 | 1361.8 | 1437.1 | 1460.3 | – | 1531.9 | – | 1579.1 | 1605.5
313.15 K | 1221.2 | 1286.9 | 1344.7 | 1421.4 | – | 1477.3 | – | 1541.4 | 1566 | 1592.8

CCCC[n+]1ccn(C)c1.COS(=O)(=O)[O-] + CCCC#N
x1 = 1
Details | speed of sound [m/s]
298.15 K | 1654.9
308.15 K | 1630.2
313.15 K | 1618.2
